The NIST ThermoML archive (doi:10.1016/j.tca.2015.12.007)
Several values for one entry are separate records, joined by “and”; a condition that tells them apart may be missing. Equal entries are not always repeated.

Experiments:
[1] = Crystal, Calculated from knudsen effusion weight loss
[2] = molar enthalpy of vaporization or sublimation; settings: 298.15 K; Crystal; Static calorimetry

CC(C)C1C(=O)NC(=O)NC1=O [5-isopropylbarbituric acid]
[1]
Settings | vapor or sublimation pressure
369.16 K | 0.000115 kPa and 0.000107 kPa and 0.000106 kPa
371.12 K | 0.000138 kPa and 0.000135 kPa
373.08 K | 0.000167 kPa and 0.000169 kPa and 0.000166 kPa
375.16 K | 0.000204 kPa and 0.000202 kPa and 0.000216 kPa
377.12 K | 0.000254 kPa and 0.000251 kPa and 0.000257 kPa
379.09 K | 0.000314 kPa and 0.000311 kPa and 0.000303 kPa
381.16 K | 0.000371 kPa and 0.00037 kPa and 0.000389 kPa
383.11 K | 0.000461 kPa and 0.000453 kPa and 0.000465 kPa
385.09 K | 0.000559 kPa and 0.000555 kPa and 0.000554 kPa
387.15 K | 0.000674 kPa and 0.000675 kPa and 0.000708 kPa
389.13 K | 0.000839 kPa and 0.000843 kPa and 0.000844 kPa
391.11 K | 0.000998 kPa and 0.001017 kPa and 0.001009 kPa

Settings | molar enthalpy [kcal/mol]
[2] | 29.9
